Assay results from patent US5120752A, “Cyclopropyl derivative lipoxygenase inhibitors” (Abbott Laboratories, priority 1990, dated 1992).

What follows are molecules tested against T1, 5-lipoxygenase (Rattus norvegicus, UniProt P12527) (assay: In vitro inhibition of 5-lipoxygenase (20,000×g supernatant from homogenized RBL-1 cells, radiolabeled arachidonic acid)). Settings: 20,000×g supernatant of RBL-1 cells; triplicate; read-out: IC50 (in vitro inhibitory potency against 5-lipoxygenase).
T1 construct: 20,000×g supernatant from 1.5 million homogenized RBL-1 cells; endogenous in cells; host or cells: RBL-1 cells (20,000×g supernatant of homogenate)
T1 sequence (P12527 1-673): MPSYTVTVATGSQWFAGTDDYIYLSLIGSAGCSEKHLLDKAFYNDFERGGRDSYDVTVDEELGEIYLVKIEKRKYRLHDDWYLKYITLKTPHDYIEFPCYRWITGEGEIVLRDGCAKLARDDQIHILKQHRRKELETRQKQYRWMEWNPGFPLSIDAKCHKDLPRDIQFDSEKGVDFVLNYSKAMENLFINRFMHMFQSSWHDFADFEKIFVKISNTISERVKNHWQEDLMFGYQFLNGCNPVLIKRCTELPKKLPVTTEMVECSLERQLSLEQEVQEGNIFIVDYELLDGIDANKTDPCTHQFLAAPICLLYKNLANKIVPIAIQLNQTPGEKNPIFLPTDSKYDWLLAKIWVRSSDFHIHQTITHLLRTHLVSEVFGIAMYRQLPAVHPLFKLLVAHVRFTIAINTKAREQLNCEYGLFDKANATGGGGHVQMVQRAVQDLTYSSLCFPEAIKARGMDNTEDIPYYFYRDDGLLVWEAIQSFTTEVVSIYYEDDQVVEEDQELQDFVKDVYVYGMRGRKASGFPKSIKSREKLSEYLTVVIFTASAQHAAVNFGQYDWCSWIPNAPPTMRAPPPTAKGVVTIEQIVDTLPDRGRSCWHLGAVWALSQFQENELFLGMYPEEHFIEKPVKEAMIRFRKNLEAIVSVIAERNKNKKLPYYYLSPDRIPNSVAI
Type: biochemical
Experimental: Assays to determine 5-lipoxygenase inhibitory activity were performed in […] incubations containing the 20,000×g supernatant from 1.5 million homogenized RBL-1 cells and various concentrations of the test compound. Reactions were initiated by addition of radiolabeled arachidonic acid and terminated by acidification and ether extraction. Reaction products were separated from nonconverted substrate by thin layer chromatography and measured by liquid scintillation spectroscopy. All incubations were performed in triplicate. Inhibition of 5-lipoxygenase activity was calculated as the ratio of the amount of product formed in the presence and absence of inhibitor. IC50 values (concentration of compound producing 50% enzyme inhibition) were calculated by linear regression analysis of percentage inhibition versus log inhibitor concentration plots. (Dyer, R .D.; Haviv, F.; Hanel, A. M.; Bornemier, D. A.; Carter, G. W. Fed. Proc., Fed. Am. Soc. Exp. Biol. 1984, 43, 1462A).

| SMILES | IC50 [µM] |
| --- | --- |
| NC(=O)N(O)C[C@@H]1C[C@H]1c1cccc(Oc2ccncc2)c1 (relative stereo) [Example 49, N-(trans-(2-(3-(4-pyridyloxy)phenyl)cyclopropyl)methyl)-N-hydroxyurea] | 0.4 |
| CNC(=O)N(O)C(C)[C@@H]1C[C@H]1c1cc2ccccc2s1 (stereo partly drawn) [Example 8, N-(1-trans-(2-(benzo[b]thien-2-yl)cyclopropyl)ethyl)-N-hydroxy-N'-methylure] | 0.2 |
| COc1ccc(Oc2cccc([C@@H]3C[C@H]3CN(O)C(N)=O)c2)cc1 (relative stereo) [Example 53, N-(1-trans-(2-(3-(4-methoxyphenoxy)phenyl)cyclopropyl)-methyl)-N-hydroxyurea] | 0.1 |
| CC(Oc1ccc([C@@H]2C[C@H]2C(C)N(O)C(N)=O)cc1)c1ccccc1 (stereo partly drawn) [Example 7, N-(1-trans-(2-(4-(1-phenylethoxy)phenyl)cyclopropyl)ethyl)-N-hydroxyurea] | 0.4 |
| CC(C)Oc1ccc([C@@H]2C[C@H]2CN(O)C(N)=O)cc1 (relative stereo) [Example 67, N-(1-trans-(2-(4-isopropoxyphenyl)cyclopropyl)methyl)-N-hydroxyurea] | 0.4 |
| CC([C@H]1[C@H](c2ccccc2)C1(C)C)N(O)C(N)=O (stereo partly drawn) [Example 24] | 0.1 |
| CC(C)Oc1ccc([C@@H]2C[C@H]2CN(O)C(N)=O)cc1Br (relative stereo) [Example 66, N-(1-trans-(2-(3-bromo-4-isopropoxyphenyl)cyclopropyl)-methyl)-N-hydroxyurea] | 0.44 |
| CC(C)c1ccc([C@@H]2C[C@H]2CN(O)C(N)=O)cc1 (relative stereo) [Example 63] | 0.3 |
| Cc1cccc([C@@H]2C[C@H]2CN(O)C(N)=O)n1 (relative stereo) [Example 62, N-(1-trans-(2-(6-methyl-2-pyridyl)cyclopropyl)methyl)-N-hydroxyurea] | 7.6 |
| NC(=O)N(O)C[C@@H]1C[C@H]1c1ccc(Oc2ccccc2)cc1 (relative stereo) [Example 36, N-(1-trans-(2-(4-phenoxyphenyl)cyclopropyl)methyl)-N-hydroxyurea] | 0.06 |
| NC(=O)N(O)C[C@@H]1C[C@H]1c1cccc(Oc2ccccn2)c1 (relative stereo) [Example 48, N-(1-trans-(2-(3-(2-pyridyloxy)phenyl)cyclopropyl)methyl)-N-hydroxyurea] | 0.4 |
| NC(=O)N(O)C[C@@H]1C[C@H]1c1ccc(OCc2ccccc2)cc1 (relative stereo) [Example 21, N-(1-trans-(2-(4-(phenylmethoxy)phenyl)cyclopropyl)methyl)-N-hydroxyurea] | 0.05 |
| Cc1ccc([C@@H]2C[C@H]2CN(O)C(N)=O)cc1Oc1ccccc1 (relative stereo) [Example 61, N-(1-trans-(2-(4-methyl-3-phenoxyphenyl)cyclopropyl)methyl)-N-hydroxyurea] | 0.2 |
| NC(=O)N(O)C[C@@H]1C[C@H]1c1cccc(Oc2ccc(F)cc2)c1 (relative stereo) [Example 50, N-(1-trans-(2-(3-(4-fluorophenoxy)phenyl)cyclopropyl)methyl)-N-hydroxyurea] | 0.1 |
| COc1ccc([C@@H]2C[C@H]2CN(O)C(N)=O)cc1 (relative stereo) [Example 60, N-(1-trans-(2-(4-methoxyphenyl)cyclopropyl)methyl)-N-hydroxyurea] | 1.5 |
| Cc1cc([C@@H]2C[C@H]2CN(O)C(N)=O)ccc1Oc1ccccc1 (relative stereo) [Example 56, N-(1-trans-(2-(3-methyl-4-phenoxy)phenylcylclopropyl)methyl)-N-hydroxyurea] | 0.2 |
| CC(C)Oc1cccc([C@@H]2C[C@H]2CN(O)C(N)=O)c1 (relative stereo) [Example 64] | 1 |

| SMILES | IC50 [µM] |
| --- | --- |
| CC(C)Cc1ccc([C@@H]2C[C@H]2CN(O)C(N)=O)cc1 (relative stereo) [Example 20, N-(1-trans-(2-(4-(2-methyl-1-propyl)phenyl)cyclopropyl)-methyl)-N-hydroxyurea] | 0.08 |
| CC([C@@H]1C[C@H]1c1ccc(OCc2ccccc2)cc1)N(O)C(N)=O (stereo partly drawn) [Example 14, N-(1-trans-(2-(4-(phenylmethoxy)phenyl)cyclopropyl)ethyl)-N-hydroxyurea] | 0.13 |
| Cc1ccc(Oc2cccc([C@@H]3C[C@H]3CN(O)C(N)=O)c2)cc1 (relative stereo) [Example 51, N-(1-trans-(2-(3-(4-methylphenoxy)phenyl)cyclopropyl)methyl)-N-hydroxyurea] | 0.06 |
| CC(C1CC1c1ccco1)N(O)C(N)=O (stereo not drawn) [Example 65, N-(1-trans-(2-(2-furfuranyl)cyclopropyl)ethyl-N-hydroxyurea] | 3.6 |
| CC([C@@H]1C[C@H]1CCc1ccccc1)N(O)C(N)=O (stereo partly drawn) [Example 32, N-(1-trans-(2(2-phenylethyl)cyclopropyl)ethyl)-N-hydroxyurea] | 0.1 |
| CN(O)C(=O)[C@@H]1C[C@H]1c1ccccc1 (relative stereo) [Example 31, N-methyl-N-hydroxy-trans-2-phenylcyclopropyl carboxamide] | 1.4 |
| NC(=O)N(O)C[C@@H]1C[C@H]1c1ccncc1 (relative stereo) [Example 43, N-(1-trans-(2-(4-pyridyl)cyclopropyl)methyl)-N-hydroxyurea] | 5.7 |
| CC([C@@H]1C[C@H]1c1cc2ccccc2s1)N(O)C(N)=O (single isomer, unassigned) [Example 1b, N-(1-trans-(2-(benzo[b]thien-2-yl)cyclopropyl)ethyl)-N-hydroxyurea] | 0.2 |
| NC(=O)N(O)C[C@@H]1C[C@H]1c1cccc(Oc2ccc(OCc3ccccc3)cc2)c1 (relative stereo) [Example 54, N-(1-trans-(2-(3-(4-benzyloxyphenoxy)phenyl)cyclopropyl)-methyl)-N-hydroxyurea] | 0.3 |
| NC(=O)N(O)C[C@@H]1C[C@H]1c1cccnc1 (relative stereo) [Example 42] | 1.6 |
| COc1ccc2cc([C@@H]3C[C@H]3CN(O)C(N)=O)ccc2c1 (relative stereo) [Example 18, N-(1-trans-(2-(6-methoxy-2-naphthyl)cyclopropyl)methyl)-N-hydroxyurea] | 0.2 |
| CC([C@@H]1C[C@H]1c1cc2ccccc2s1)N(O)C(N)=O (single isomer, unassigned) [Example 1a, N-(1-trans-(2-(benzo[b]thien-2-yl)cyclopropyl)ethyl)-N-hydroxyurea] | 0.3 |
| CC(=O)N(O)C[C@@H]1C[C@H]1c1ccc(C)cc1 (relative stereo) [Example 46, N-(1-trans-(2-(4-methylphenyl)cyclopropyl)methyl)-N-hydroxyacetamide] | 0.3 |
| CC([C@@H]1C[C@H]1c1ccc(Oc2ccccc2)cc1)N(O)C(N)=O (stereo partly drawn) [Example 2, N-(1-trans-(2-(4-phenoxyphenyl)cyclopropyl)ethyl)-N-hydroxyurea] | 0.1 |
| CC(=O)N(O)C(C)[C@@H]1C[C@H]1c1ccc(Br)cc1 (single isomer, unassigned) [Example 44, N-(1-trans-(2-(4-bromophenyl)cyclopropyl)ethyl)-N-hydroxyacetamide] | 0.1 |
| CC(=O)N(O)C(C)[C@@H]1C[C@H]1c1ccc(C)cc1 (stereo partly drawn) [Example 59, N-(1-trans-(2-(4-methylphenyl)cyclopropyl)ethyl)-N-hydroxyacetamide] | 0.7 |
